Results from the NIST ThermoML archive (doi:10.1016/j.tca.2015.01.017).
Numbers after ± are expanded uncertainties.

Tests used:
[1] = DTA; for Normal melting temperature: Crystal 1
[2] = Molar enthalpy of transition or fusion; conditions: DSC

With `Clc1c(Cl)c(Cl)c(Cl)c(Cl)c1Cl` [hexachlorobenzene] the Normal melting temperature [1] was 231 ± 0.5 °C and the “Molar enthalpy of transition or fusion” value ([2]; Crystal) was 5.72 ± 0.17 kcal/mol.

For `Oc1c(Cl)c(Cl)c(Cl)c(Cl)c1Cl` [pentachlorophenol], the Normal melting temperature [1] was 191.7 ± 0.5 °C, the Triple point temperature ([1]; Crystal 2) was 441.6 ± 0.5 K and the Triple point temperature ([1]; Crystal 3) was 340.2 ± 0.5 K. The Triple point temperature ([1]; Crystal 4) was 287.4 ± 0.5 K, the “Molar enthalpy of transition or fusion” value ([2]; Crystal 1) was 3.68 ± 0.122 kcal/mol and the “Molar enthalpy of transition or fusion” value ([2]; Crystal 3) was 2.15 ± 0.0837 kcal/mol.
